Converted amounts (≈) assume the structure as drawn. Blank lines part the entries; values can stand above or below the compound they belong to. Where a SMILES comes first, the peptide text is derived from it. The star is where a group is joined. CH2Cl = ClC*
How the values were obtained:
[1] = biological target: T1, Tyrosine-protein kinase transforming protein Abl (Abelson murine leukemia virus, UniProt P00521)
T1 sequence (P00521 whole entry): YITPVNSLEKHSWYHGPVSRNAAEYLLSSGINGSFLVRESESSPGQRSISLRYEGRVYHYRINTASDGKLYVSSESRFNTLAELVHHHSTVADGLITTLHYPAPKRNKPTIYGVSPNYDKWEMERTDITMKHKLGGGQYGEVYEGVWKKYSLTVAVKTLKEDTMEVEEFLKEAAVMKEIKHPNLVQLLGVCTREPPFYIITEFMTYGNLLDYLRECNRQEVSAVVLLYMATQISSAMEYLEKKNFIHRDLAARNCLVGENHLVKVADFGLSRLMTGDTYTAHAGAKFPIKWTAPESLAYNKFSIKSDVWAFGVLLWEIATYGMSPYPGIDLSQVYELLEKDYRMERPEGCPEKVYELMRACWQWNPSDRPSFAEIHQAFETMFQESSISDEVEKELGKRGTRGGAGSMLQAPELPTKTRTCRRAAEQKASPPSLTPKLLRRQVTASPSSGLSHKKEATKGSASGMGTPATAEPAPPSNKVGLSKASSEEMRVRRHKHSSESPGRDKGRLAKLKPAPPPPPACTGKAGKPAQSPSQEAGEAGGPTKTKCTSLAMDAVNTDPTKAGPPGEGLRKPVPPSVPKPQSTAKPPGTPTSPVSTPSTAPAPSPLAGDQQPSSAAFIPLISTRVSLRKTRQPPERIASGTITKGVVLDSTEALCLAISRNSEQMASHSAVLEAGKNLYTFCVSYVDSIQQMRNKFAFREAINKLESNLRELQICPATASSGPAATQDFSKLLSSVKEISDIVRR
Description: Inhibition of Abelson murine leukemia virus p60 v-abl

[2] = biological target: T2, Epidermal growth factor receptor (Homo sapiens, UniProt P00533)
[3] = biological target: T2, Epidermal growth factor receptor; experiment: Inhibition of EGFR in human A431 cells at 400 nmol/mg protein in absence of EGF; format: cell-based; conditions: A-431
[4] = biological target: T2, Epidermal growth factor receptor; experiment: Inhibition of EGFR in human A431 cells at 400 nmol/mg protein in presence of EGF; format: cell-based; conditions: A-431
[5] = Inhibition of p40 tyrosine kinase
[6] = biological target: Proto-oncogene tyrosine-protein kinase Src (Homo sapiens, UniProt P12931)
Sequence of Proto-oncogene tyrosine-protein kinase Src (P12931 2-536 limits assumed): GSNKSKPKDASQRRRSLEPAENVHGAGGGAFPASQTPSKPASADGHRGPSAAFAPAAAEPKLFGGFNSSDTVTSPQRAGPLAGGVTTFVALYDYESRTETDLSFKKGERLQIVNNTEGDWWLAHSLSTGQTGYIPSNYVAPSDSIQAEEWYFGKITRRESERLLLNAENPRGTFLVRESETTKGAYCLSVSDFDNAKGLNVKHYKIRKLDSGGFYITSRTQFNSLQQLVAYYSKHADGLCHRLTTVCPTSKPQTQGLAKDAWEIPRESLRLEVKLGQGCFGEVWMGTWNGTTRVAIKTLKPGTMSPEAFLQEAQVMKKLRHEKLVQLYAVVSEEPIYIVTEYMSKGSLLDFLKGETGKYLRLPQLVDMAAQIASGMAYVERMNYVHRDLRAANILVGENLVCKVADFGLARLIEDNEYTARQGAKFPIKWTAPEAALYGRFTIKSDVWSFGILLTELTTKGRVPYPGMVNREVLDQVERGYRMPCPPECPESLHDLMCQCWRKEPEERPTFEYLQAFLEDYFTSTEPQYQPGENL
Description: Inhibition of p60c-src expressed in chick embryo fibroblast

T2 sequence (P00533 whole entry): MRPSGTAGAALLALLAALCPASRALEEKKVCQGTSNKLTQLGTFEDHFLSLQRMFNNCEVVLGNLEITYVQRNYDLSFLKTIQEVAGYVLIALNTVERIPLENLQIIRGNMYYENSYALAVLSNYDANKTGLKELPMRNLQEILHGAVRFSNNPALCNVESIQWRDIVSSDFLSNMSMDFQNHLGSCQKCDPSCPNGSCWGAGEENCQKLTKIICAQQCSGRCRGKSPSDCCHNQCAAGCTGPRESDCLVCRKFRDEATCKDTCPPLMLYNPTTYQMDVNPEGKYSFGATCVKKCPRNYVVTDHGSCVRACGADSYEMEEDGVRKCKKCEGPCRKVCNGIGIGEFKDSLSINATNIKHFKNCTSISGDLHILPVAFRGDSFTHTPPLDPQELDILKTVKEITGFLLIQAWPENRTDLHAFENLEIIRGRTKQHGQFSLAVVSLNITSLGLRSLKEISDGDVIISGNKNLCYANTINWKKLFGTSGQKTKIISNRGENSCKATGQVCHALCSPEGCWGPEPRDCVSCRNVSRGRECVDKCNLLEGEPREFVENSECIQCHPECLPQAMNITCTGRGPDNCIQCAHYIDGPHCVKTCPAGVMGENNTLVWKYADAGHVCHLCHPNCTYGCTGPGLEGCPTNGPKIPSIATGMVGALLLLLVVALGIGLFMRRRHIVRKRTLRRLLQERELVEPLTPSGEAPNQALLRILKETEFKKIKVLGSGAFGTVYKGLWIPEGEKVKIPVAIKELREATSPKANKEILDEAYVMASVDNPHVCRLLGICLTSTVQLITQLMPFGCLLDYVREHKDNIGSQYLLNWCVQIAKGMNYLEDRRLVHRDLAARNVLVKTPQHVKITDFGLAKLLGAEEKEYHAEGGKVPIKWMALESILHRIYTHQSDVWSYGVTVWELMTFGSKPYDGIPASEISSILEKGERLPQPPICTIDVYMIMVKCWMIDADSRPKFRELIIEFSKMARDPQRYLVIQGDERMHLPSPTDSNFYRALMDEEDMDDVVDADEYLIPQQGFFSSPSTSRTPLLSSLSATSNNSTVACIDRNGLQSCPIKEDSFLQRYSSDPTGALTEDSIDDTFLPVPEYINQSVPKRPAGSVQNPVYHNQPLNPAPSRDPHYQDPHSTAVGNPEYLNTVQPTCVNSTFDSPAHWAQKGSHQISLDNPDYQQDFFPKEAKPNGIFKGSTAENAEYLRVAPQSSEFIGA

IC50 [1]: > 100 µM | IC50 [2]: 1000 nM
SMILES: CC(C)NC(=O)c1ccc(S(=O)(=O)Oc2ccc(/C=C/[N+](=O)[O-])cc2)cc1

inhibition [3]: 21% | inhibition [4]: 15%
SMILES: O=C(CCl)[C@H](Cc1ccccc1)NOCc1ccccc1

IC50 [1]: 20 µM | IC50 [2]: 20000 nM
SMILES: C[C@H](NC(=O)c1ccc(S(=O)(=O)Oc2ccc(/C=C/[N+](=O)[O-])cc2)cc1)C(=O)N[C@@H](C)C(=O)NCCN

IC50 [1]: 100 µM | IC50 [2]: 1000 nM
SMILES: CC(C)(C)OC(=O)NCCNC(=O)c1ccc(S(=O)(=O)Oc2ccc(/C=C/[N+](=O)[O-])cc2)cc1

IC50 [1]: > 100 µM | IC50 [2]: 5000 nM
SMILES: CCCCNC(=O)c1ccc(S(=O)(=O)Oc2ccc(/C=C/[N+](=O)[O-])cc2)cc1

IC50 [1]: > 5 µM | IC50 [2]: 5000 nM
SMILES: NCCNC(=O)c1ccc(S(=O)(=O)Oc2ccc(/C=C/[N+](=O)[O-])cc2)cc1

IC50 [1]: 40 µM | IC50 [2]: 3000 nM
SMILES: COc1cc(/C=C/[N+](=O)[O-])ccc1OS(=O)(=O)c1ccc(C(=O)O)cc1

IC50 [1]: 20 µM
SMILES: Nc1ncnc2c1ncn2[C@@H]1O[C@H](COC(=O)c2ccc(S(=O)(=O)Nc3ccccc3)cc2)[C@@H](O)[C@H]1O

inhibition [3]: 65% | inhibition [4]: 69%
SMILES: CC(C)C[C@H](NC(=O)OC(C)(C)C)C(=O)CBr

IC50 [1]: 100 µM
SMILES: CC(=O)NC(Cc1ccc(OS(=O)(=O)c2ccc(C(=O)OC[C@H]3O[C@@H](n4cnc5c(N)ncnc54)[C@H](O)[C@@H]3O)cc2)cc1)C(N)=O (stereo not given in full)

inhibition [3]: 5% | inhibition [4]: 0%
SMILES: CC(=O)NCC(=O)NCC(=O)N[C@@H](C)C(=O)N[C@@H](Cc1ccccc1)C(=O)CCl (Ac-GGAF-CH2Cl)

IC50 [1]: 30 µM
SMILES: CC(=O)NCCNP(=O)(O)OP(=O)(O)OP(=O)(O)OC[C@H]1O[C@@H](n2cnc3c(N)ncnc32)[C@H](O)[C@@H]1O

IC50 [1]: 400 µM
SMILES: Nc1ncnc2c1ncn2[C@@H]1O[C@H](COP(=O)(O)OP(=O)(O)OP(=O)(O)OP(=O)(O)Oc2ccccc2)[C@@H](O)[C@H]1O

inhibition [3]: 71% | inhibition [4]: 44%
SMILES: C[C@H](NC(=O)OCc1ccccc1)C(=O)CCl

IC50 [5]: > 300 µg/mL
SMILES: COc1cc(/C=C/C(=O)O)ccc1O [FERULATE]

IC50 [5]: > 5 ×10² ug/ml
SMILES: O=C1C[C@@H](c2ccccc2)Oc2cc(O)cc(O)c21 [PINOCEMBRIN]

IC50 [1]: 40 µM
SMILES: CC(=O)NC(Cc1ccc(NP(=O)(O)OP(=O)(O)OP(=O)(O)OC[C@H]2O[C@@H](n3cnc4c(N)ncnc43)[C@H](O)[C@@H]2O)cc1)C(N)=O (stereo not given in full)

IC50 [1]: 10 µM
SMILES: Nc1ncnc2c1ncn2[C@@H]1O[C@H](COP(=O)(O)OP(=O)(O)OP(=O)(O)Oc2ccccc2)[C@@H](O)[C@H]1O

inhibition [3]: 59% | inhibition [4]: 29%
SMILES: CC(=O)N[C@@H](Cc1ccccc1)C(=O)NCC(=O)N[C@@H](C)C(=O)N[C@@H](CC(C)C)C(=O)CCl (Ac-FGAL-CH2Cl)

IC50 [1]: 100 µM
SMILES: CC(=O)NC(Cc1ccc(NP(=O)(O)OP(=O)(O)OP(=O)(O)OP(=O)(O)OC[C@H]2O[C@@H](n3cnc4c(N)ncnc43)[C@H](O)[C@@H]2O)cc1)C(N)=O (stereo not given in full)

inhibition [3]: 4% | inhibition [4]: 10%
SMILES: CC(=O)N[C@@H](C)C(=O)N[C@@H](C)C(=O)N[C@@H](Cc1ccccc1)C(=O)N[C@H](C(=O)CCl)[C@@H](C)O (Ac-AAFT-CH2Cl)

inhibition [3]: 15% | inhibition [4]: 18%
SMILES: CC(C)C[C@H](NC(=O)OCc1ccccc1)C(=O)C=[N+]=[N-]

inhibition [3]: 6% | inhibition [4]: 10%
SMILES: O=C(CCl)[C@H](Cc1c[nH]c2ccccc12)NOCc1ccccc1

IC50 [1]: 50 µM
SMILES: Nc1ncnc2c1ncn2[C@@H]1O[C@H](COC(=O)c2ccc(S(=O)(=O)NCc3ccccc3)cc2)[C@@H](O)[C@H]1O

Second part, the compound before the results:

SMILES: COC(=O)c1ccc(S(=O)(=O)Oc2ccc(/C=C/[N+](=O)[O-])cc2)cc1O
IC50 [1]: > 100 µM | IC50 [2]: 2000 nM

SMILES: O=C(O)c1ccc(S(=O)(=O)Oc2ccc(/C=C/[N+](=O)[O-])cc2)c(O)c1
IC50 [1]: 100 µM | IC50 [2]: 300 nM

SMILES: O=C1C[C@@H](c2ccc(O)cc2)Oc2cc(O)cc(O)c21 [NARINGENIN]
IC50 [5]: 8 ×10¹ ug/ml

SMILES: Nc1ncnc2c1ncn2[C@@H]1O[C@H](COP(=O)(O)OP(=O)(O)OP(=O)(O)OP(=O)(O)O)[C@@H](O)[C@H]1O
IC50 [6]: 9 µM

SMILES: O=C1c2c(O)cc(O)cc2O[C@H](c2ccc(O)c(O)c2)[C@H]1O [(+)-TAXIFOLIN]
IC50 [5]: 3 ×10² ug/ml

SMILES: Nc1ncnc2c1ncn2[C@@H]1O[C@H](COC(=O)c2ccc(S(N)(=O)=O)cc2)[C@@H](O)[C@H]1O
IC50 [1]: 100 µM

SMILES: O=C(O)c1ccc(S(=O)(=O)Oc2ccc(/C=C/[N+](=O)[O-])cc2)cc1
IC50 [1]: 100 µM

SMILES: Nc1ncnc2c1ncn2[C@@H]1O[C@H](COP(=O)(O)OP(=O)(O)OP(=O)(O)OP(=O)(O)OC[C@H]2O[C@@H](n3cnc4c(N)ncnc43)[C@H](O)[C@@H]2O)[C@@H](O)[C@H]1O [DIADENOSINE TETRAPHOSPHATE]
IC50 [6]: 46 µM

SMILES: O=C(O)c1ccc(S(=O)(=O)Oc2ccc(/C=C/[N+](=O)[O-])cc2)cc1O
IC50 [1]: 30 µM | IC50 [2]: 50 nM

SMILES: Nc1nc2c(ncn2[C@@H]2O[C@H](COP(=O)(O)OP(=O)(O)OP(=O)(O)OP(=O)(O)OC[C@H]3O[C@@H](n4cnc5c(=O)[nH]c(N)nc54)[C@H](O)[C@@H]3O)[C@@H](O)[C@H]2O)c(=O)[nH]1
IC50 [6]: > 100 µM

SMILES: CS(=O)(=O)c1ccc(C(=O)OC[C@H]2O[C@@H](n3cnc4c(N)ncnc43)[C@H](O)[C@@H]2O)cc1
IC50 [1]: 60 µM

SMILES: Oc1cc(O)cc(/C=C/c2ccc(O)c(O)c2)c1 [PICEATANNOL]
IC50 [5]: 4 µg/mL (≈ 16.4 µM)

SMILES: COc1ccc(NP(=O)(O)OP(=O)(O)OP(=O)(O)OC[C@H]2O[C@@H](n3cnc4c(N)ncnc43)[C@H](O)[C@@H]2O)cc1
IC50 [1]: 90 µM

SMILES: Cc1ccc([C@@H]2CC(=O)c3c(O)cc(O)cc3O2)cc1
IC50 [5]: 3 ×10¹ ug/ml

SMILES: O=C(O)/C=C/c1ccc(O)cc1 [COUMARIC ACID]
IC50 [5]: > 300 µg/mL

SMILES: O=C1c2ccc(O)cc2O[C@H](c2ccc(O)c(O)c2)[C@H]1O [FUSTIN]
IC50 [5]: > 5 ×10² ug/ml

SMILES: Nc1ncnc2c1ncn2[C@@H]1O[C@H](COC(=O)c2ccc(S(=O)(=O)Oc3ccc(/C=C/[N+](=O)[O-])cc3)cc2)[C@@H](O)[C@H]1O
IC50 [1]: > 100 µM

SMILES: CNC(=O)c1ccc(S(=O)(=O)Oc2ccc(/C=C/[N+](=O)[O-])cc2)cc1
IC50 [1]: > 40 µM

SMILES: COC(=O)c1ccc(S(=O)(=O)Oc2ccc(/C=C/[N+](=O)[O-])cc2)cc1
IC50 [1]: > 100 µM | IC50 [2]: 2000 nM

SMILES: Nc1ncnc2c1ncn2[C@@H]1O[C@H](COP(=O)(O)O)[C@@H](O)[C@H]1O [ADENOSINE PHOSPHATE]
IC50 [6]: 0.1 µM

SMILES: CC(C)C[C@H](N)C(=O)CCl
inhibition [3]: 16% | inhibition [4]: 0%

SMILES: Nc1ncnc2c1ncn2[C@@H]1O[C@H](COC(=O)c2ccc(S(=O)(=O)F)cc2)[C@@H](O)[C@H]1O
IC50 [1]: 200 µM
